From US12054483B2, “Small molecule inhibitors of DYRK/CLK and uses thereof” (Arizona Board of Regents on Behalf of the University of …, priority 2018, dated 2024)
pKd: −log10 of the molar value.

Molecular target: DYRK1A (Homo sapiens, UniProt Q13627)
Assay: Affinity testing of compounds with DYRK1A (KD)
Assay type: binding
Details: DYRK1A affinity key classes

SMILES: CC(=O)N1C[C@@H]2[C@H](C1)[C@H]2n1c(C)nc2ccc(-c3ccnc(N)c3)nc21 [Compound 47, 1-((1R,5S,6s)-6-(5-(2-aminopyridin-4-yl)-2-methyl-3H-imidazo[4,5-b]pyridin-3-yl)-3-azabicyclo[3.1.0]hexan-3-yl)ethan-1-one]
- pKd: 7.00 to 9.30

SMILES: Cc1nc2ccc(-c3ccnc(N)c3)nc2n1-c1ccc(=O)n(C)c1 [Compound 48, 5-(5-(2-aminopyridin-4-yl)-2-methyl-3H-imidazo[4,5-b]pyridin-3-yl)-1-methylpyridin-2(1H)-one]
- pKd: 7.00 to 9.30

SMILES: Cc1nc2ccc(-c3ccnc(N)c3)nc2n1-c1ccc2[nH]cnc2c1 [Compound 49, 4-(3-(1H-benzo[d]imidazol-5-yl)-2-methyl-3H-imidazo[4,5-b]pyridin-5-yl)pyridin-2-amine]
- pKd: 7.00 to 9.30

SMILES: Cc1cc(-c2ccc3nc(C)n(-c4ccc5[nH]cnc5c4)c3n2)ccn1 [Compound 50, 3-(1H-benzo[d]imidazol-5-yl)-2-methyl-5-(2-methylpyridin-4-yl)-3H-imidazo[4,5-b]pyridine]
- pKd: 7.00 to 9.30

SMILES: Cc1cc(-c2ccc3nc(C)n(-c4ccc5[nH]cnc5c4)c3n2)cc(C)n1 [Compound 51, 3-(1H-benzo[d]imidazol-5-yl)-5-(2,6-dimethylpyridin-4-yl)-2-methyl-3H-imidazo[4,5-b]pyridine]
- pKd: 6.30 to 7.00

SMILES: Cc1cc(-c2ccc3nc(C)n(-c4ccc(N5CCOCC5)cc4)c3n2)cc(C)n1 [Compound 53, 4-(4-(5-(2,6-dimethylpyridin-4-yl)-2-methyl-3H-imidazo[4,5-b]pyridin-3-yl)phenyl)morpholine]
- pKd: 5.00 to 6.30

SMILES: Cc1nc2ccc(-c3cc[nH]c(=O)c3)nc2n1-c1ccc(N2CCOCC2)cc1 [Compound 54, 4-(2-methyl-3-(4-morpholinophenyl)-3H-imidazo[4,5-b]pyridin-5-yl)pyridin-2(1H)-one]
- pKd: 5.00 to 6.30

SMILES: Cc1nc2ccc(-c3ccncc3)nc2n1-c1ccc(C(=O)N2CCOCC2)cc1 [Compound 56, (4-(2-methyl-5-(pyridin-4-yl)-3H-imidazo[4,5-b]pyridin-3-yl)phenyl)(morpholino)methanone]
- pKd: 6.30 to 7.00

SMILES: Cc1nc2ccc(-c3ccncc3)nc2n1-c1ccc(C(=O)N2CCN(C3COC3)CC2)cc1 [Compound 57, (4-(2-methyl-5-(pyridin-4-yl)-3H-imidazo[4,5-b]pyridin-3-yl)phenyl)(4-(oxetan-3-yl)piperazin-1-yl)methanone]
- pKd: 6.30 to 7.00

SMILES: Cc1nc2ccc(-c3ccncc3)nc2n1-c1ccc(C(=O)NC2CC(F)(F)C2)cc1 [Compound 58, N-(3,3-difluorocyclobutyl)-4-(2-methyl-5-(pyridin-4-yl)-3H-imidazo[4,5-b]pyridin-3-yl)benzamide]
- pKd: 6.30 to 7.00

SMILES: c1cc(-c2ccc3nnn(-c4ccc5[nH]cnc5c4)c3n2)ccn1 [Compound 59, 3-(1H-benzo[d]imidazol-5-yl)-5-(pyridin-4-yl)-3H-[1,2,3]triazolo[4,5-b]pyridine]
- pKd: 7.00 to 9.30

SMILES: Cc1nc2ccc(-c3cc[n+]([O-])cc3)nc2n1-c1ccc2c(c1)OCO2 [Compound 60, 4-(3-(benzo[d][1,3]dioxol-5-yl)-2-methyl-3H-imidazo[4,5-b]pyridin-5-yl)-1λ^4-pyridin-2-ylium-1-olate]
- pKd: 5.00 to 6.30

SMILES: Cc1nc2ccc(-c3ccnc(C(F)F)c3)nc2n1-c1ccc2c(c1)OCO2 [Compound 61, 3-(benzo[d][1,3]dioxol-5-yl)-5-(2-(difluoromethyl)pyridin-4-yl)-2-methyl-3H-imidazo[4,5-b]pyridine]
- pKd: 5.00 to 6.30

SMILES: Cc1nc2ccc(-c3ccncc3)nc2n1-c1ncc(CN2CCCC(F)(F)C2)s1 [Compound 62, 5-((3,3-difluoropiperidin-1-yl)methyl)-2-(2-methyl-5-(pyridin-4-yl)-3H-imidazo[4,5-b]pyridin-3-yl)thiazole]
- pKd: 7.00 to 9.30

SMILES: Cc1nc2ccc(-c3ccncc3)nc2n1-c1ccc(CN2CCN(C3COC3)CC2)cc1 [Compound 63, 2-methyl-3-(4-((4-(oxetan-3-yl)piperazin-1-yl)methyl)phenyl)-5-(pyridin-4-yl)-3H-imidazo[4,5-b]pyridine]
- pKd: 7.00 to 9.30

SMILES: Cc1nc2ccc(-c3ccncc3)nc2n1-c1ccc(CN2CCOCC2)cn1 [Compound 64, 4-((6-(2-methyl-5-(pyridin-4-yl)-3H-imidazo[4,5-b]pyridin-3-yl)pyridin-3-yl)methyl)morpholine]
- pKd: 5.00 to 6.30

SMILES: Cc1nc2ccc(-c3ccncc3)nc2n1-c1ccc(CN2CCCC(F)(F)C2)cc1 [Compound 65, 3-(4-((3,3-difluoropiperidin-1-yl)methyl)phenyl)-2-methyl-5-(pyridin-4-yl)-3H-imidazo[4,5-b]pyridine]
- pKd: 6.30 to 7.00

SMILES: c1cc(-c2cn3c(-c4ccc5c(c4)OCO5)cnc3cn2)ccn1 [Compound 67, 3-(benzo[d][1,3]dioxol-5-yl)-6-(pyridin-4-yl)imidazo[1,2-a]pyrazine]
- pKd: 7.00 to 9.30

SMILES: c1cc(-c2cn3cnnc3cn2)ccn1 [Compound 68, 6-(pyridin-4-yl)-[1,2,4]triazolo[4,3-a]pyrazine]
- pKd: 5.00 to 6.30

SMILES: COc1cnc(-c2ccnc(N)c2)nc1 [Compound 69, 4-(5-methoxypyrimidin-2-yl)pyridin-2-amine]
- pKd: 6.30 to 7.00

SMILES: COc1cnc(-c2ccncc2)nc1 [Compound 70, 5-methoxy-2-(pyridin-4-yl)pyrimidine]
- pKd: 5.00 to 6.30

SMILES: Cc1nc2cc(-c3ccnc(N)c3)cnc2[nH]1 [Compound 71, 4-(2-methyl-3H-imidazo[4,5-b]pyridin-6-yl)pyridin-2-amine]
- pKd: 7.00 to 9.30

SMILES: COC(=O)c1ccc(-c2cnc3ccc(-c4ccncc4)nn23)cc1 [Compound 72, methyl 4-(6-(pyridin-4-yl)imidazo[1,2-b]pyridazin-3-yl)benzoate]
- pKd: 7.00 to 9.30

SMILES: c1cc(-c2ccc3ncc(-c4ccc(N5CCOCC5)nc4)n3n2)ccn1 [Compound 73, 4-(5-(6-(pyridin-4-yl)imidazo[1,2-b]pyridazin-3-yl)pyridin-2-yl)morpholine]
- pKd: 7.00 to 9.30

SMILES: c1cc(-c2ccc3ncc(-c4ccc(N5CCCCC5)nc4)n3n2)ccn1 [Compound 74, 3-(6-(piperidin-1-yl)pyridin-3-yl)-6-(pyridin-4-yl)imidazo[1,2-b]pyridazine]
- pKd: 6.30 to 7.00

SMILES: COc1cccc(-c2cnc3ccc(-c4ccncc4)nn23)c1 [Compound 75, 3-(3-methoxyphenyl)-6-(pyridin-4-yl)imidazo[1,2-b]pyridazine]
- pKd: 5.00 to 6.30

SMILES: c1cc(-c2ccc3ncc(-c4ccc(N5CCNCC5)nc4)n3n2)ccn1 [Compound 76, 3-(6-(piperazin-1-yl)pyridin-3-yl)-6-(pyridin-4-yl)imidazo[1,2-b]pyridazine]
- pKd: 7.00 to 9.30

SMILES: c1cc(-c2ccc3ncc(-c4ccc5[nH]ccc5c4)n3n2)ccn1 [Compound 77, 3-(1H-indol-5-yl)-6-(pyridin-4-yl)imidazo[1,2-b]pyridazine]
- pKd: 7.00 to 9.30

SMILES: Fc1cc(-c2cnc3ccc(-c4ccncc4)nn23)ccc1CN1CCOCC1 [Compound 78, 4-(2-fluoro-4-(6-(pyridin-4-yl)imidazo[1,2-b]pyridazin-3-yl)benzyl)morpholine]
- pKd: 6.30 to 7.00

SMILES: Fc1cc(-c2cnc3ccc(-c4ccncc4)nn23)ccc1CN1CCCCC1 [Compound 79, 3-(3-fluoro-4-(piperidin-1-ylmethyl)phenyl)-6-(pyridin-4-yl)imidazo[1,2-b]pyridazine]
- pKd: 6.30 to 7.00

SMILES: Cc1cc(-c2ccc3ncc(-c4ccc(N5CCOCC5)nc4)n3n2)ccn1 [Compound 80, 4-(5-(6-(2-methylpyridin-4-yl)imidazo[1,2-b]pyridazin-3-yl)pyridin-2-yl)morpholine]
- pKd: 6.30 to 7.00

SMILES: Cc1cc(-c2ccc3ncc(-c4ccc(N5CCCCC5)nc4)n3n2)ccn1 [Compound 81, 6-(2-methylpyridin-4-yl)-3-(6-(piperidin-1-yl)pyridin-3-yl)imidazo[1,2-b]pyridazine]
- pKd: 6.30 to 7.00

SMILES: c1cc(-c2ccc3ncc(-c4ccc(N5CCN(C6COC6)CC5)nc4)n3n2)ccn1 [Compound 83, 3-(6-(4-(oxetan-3-yl)piperazin-1-yl)pyridin-3-yl)-6-(pyridin-4-yl)imidazo[1,2-b]pyridazine]
- pKd: 7.00 to 9.30

SMILES: Cc1cc(-c2ccc3ncc(N4CCN(C5COC5)CC4)n3n2)ccn1 [Compound 84, 6-(2-methylpyridin-4-yl)-3-(4-(oxetan-3-yl)piperazin-1-yl)imidazo[1,2-b]pyridazine]
- pKd: 5.00 to 6.30

SMILES: CC(=O)N1CCN(c2cnc3ccc(-c4ccncc4)nn23)CC1 [Compound 85, 1-(4-(6-(pyridin-4-yl)imidazo[1,2-b]pyridazin-3-yl)piperazin-1-yl)ethan-1-one]
- pKd: 5.00 to 6.30

SMILES: CN1CCN(c2cnc3ccc(-c4ccncc4)nn23)CC1 [Compound 86, 3-(4-methylpiperazin-1-yl)-6-(pyridin-4-yl)imidazo[1,2-b]pyridazine]
- pKd: 5.00 to 6.30

SMILES: CN1CCN(c2ccc(-c3cnc4ccc(-c5ccncc5)nn34)cn2)CC1 [Compound 87, 3-(6-(4-methylpiperazin-1-yl)pyridin-3-yl)-6-(pyridin-4-yl)imidazo[1,2-b]pyridazine]
- pKd: 7.00 to 9.30

SMILES: Cc1cc(-c2ccc3ncc(-c4ccc(CN5CCCC(F)(F)C5)cc4)n3n2)ccn1 [Compound 89, 3-(4-((3,3-difluoropiperidin-1-yl)methyl)phenyl)-6-(2-methylpyridin-4-yl)imidazo[1,2-b]pyridazine]
- pKd: 6.30 to 7.00

SMILES: Cc1cc(-c2ccc3ncc(-c4ccc(CN5CCOCC5)cc4)n3n2)ccn1 [Compound 90, 4-(4-(6-(2-methylpyridin-4-yl)imidazo[1,2-b]pyridazin-3-yl)benzyl)morpholine]
- pKd: 6.30 to 7.00

SMILES: Cc1cc(-c2ccc3ncc(-c4ccc(CN5C[C@@H]6C[C@@H]5CO6)cc4)n3n2)ccn1 [Compound 91, (1S,4R)-5-(4-(6-(2-methylpyridin-4-yl)imidazo[1,2-b]pyridazin-3-yl)benzyl)-2-oxa-5-azabicyclo[2.2.1]heptane]
- pKd: 7.00 to 9.30

SMILES: Cc1cc(-c2ccc3ncc(-c4ccc(CN5CCCCC5)cc4)n3n2)ccn1 [Compound 92, 6-(2-methylpyridin-4-yl)-3-(4-(piperidin-1-ylmethyl)phenyl)imidazo[1,2-b]pyridazine]
- pKd: 6.30 to 7.00

SMILES: Cc1cc(-c2ccc3ncc(-c4ccc(CN5CCC(C)(C)CC5)cc4)n3n2)ccn1 [Compound 93, 3-(4-((4,4-dimethylpiperidin-1-yl)methyl)phenyl)-6-(2-methylpyridin-4-yl)imidazo[1,2-b]pyridazine]
- pKd: 6.30 to 7.00
